Results from patent US9481636B2, “N-benzylaniline derivative and uses thereof” (Nanjing Medical University, priority 2011, dated 2016).

Tests used:
[1] = tested on: OGD-injuried neurons (primary cortical neurons); experiment: Cell viability assay: LDH release by OGD-injured primary cortical neurons; assay type: cell-based, mice; conditions: drug concentration 10^−6 M/L, OGD 2 hours, LDH after 8 hours; for inhibition at 1 µM: Mus musculus, Primary cortical neuron
Protocol: After primary neurons were cultured for 9 days, the medium was replaced by DMEM high glucose medium containing 1% FBS, serum-starved overnight and then washed twice with OGD culture solution. This OGD culture solution contains DMEM medium, 1% FBS, 1% penicillin/streptomycin and B27, and contains no sugar. Then, the primary neurons were incubated with the test drugs for 30 minutes, OGD culture solution was added into an anaerobic tank and oxygen-deprived for 2 hours. The OGD culture solution was discarded, and replaced by oxygen-saturated DMEM medium containing 1% FBS, 1% penicillin/streptomycin and B27. After 8 hours the culture solution was collected to measure LDH level.
After the primary cortical neurons were treated with various processes, neuronal culture solution in six-well plates was pipetted to a 1.5 mL plastic centrifuge tube; cells were washed three times with PBS solution and each well was added PBS 1000 μl. The cells were freezed and thawed repeated for three times, centrifuged at 12000′ g for 5 minutes at 4° C., and the supernatant was removed for use. The activity of LDH enzyme was determined with 50 μl culture solution and 25 μl supernatant using lactate dehydrogenase kit.
Protective Effects of the Objective Compounds Against Primary Cortical Neuronal Injury Cultured In Vitro (See Table 2)

[2] = tested on: acute focal cerebral ischemia/reperfusion injury in rats; experiment: MCAO focal cerebral ischemia/reperfusion injury: infarct area and neurological defect score; assay type: in vivo; conditions: tail vein 1.5 mg/kg 1 h after reperfusion, 48 h, FIG. 8; for cerebral infarct area: MCAO 120 min
From the text: Cerebral ischemia injury was induced by middle cerebral artery occlusion (MCAO) reperfusion model. […] The neck skin was incised along median line, and neck muscle tissue was bluntly dissected to expose and carefully isolate the common carotid artery (CCA) on the right side. The concomitant vagus nerve was gently peeled and ligated, and inward and superficial external carotid artery (ECA) was cut off; pterygopalatine artery, outward branch artery near skull base along internal carotid artery (ICA), was isolated and ligated. […] At this point, the blood supply to the middle cerebral arteries (MCA) including carotid artery and ramus communicans before Waldeyer's ring were all blocked. The depth of the inserted line was determined based on the mark. Extravascular part of the line was ligated and fixed to prevent the line from slippage. After rightside cerebral ischemia 120 minutes, the line was carefully unplugged and the broken end was ligated to achieve reperfusion after ischemia. Suturing the skin, and the rats were returned to cage and fed carefully. The body temperature of the animals was maintained constantly at 37±0.5° C. during surgery.
The modified Bederson 5-score method was used for evaluation of neurological defect symptoms. Neurological defect symptoms of rats after cerebral ischemia was evaluated by single-blinded method, i.e., test animals were marked by group by the test designers and testers who graded neurological defect symptoms didn't know the animal grouping, after the grading the testers submitted the grading results with various marks to the designers, and the designers unblinded the grouping to obtain scores for each animal in each test group.
The animals were anesthetized with 10% chloral hydrate 3.5 ml/kg, the brains were taken out after beheading, and olfactory bulb, cerebellum and lower brain stem were removed. Blood on the surface of the brain was washed with normal saline and residual water on the surface was absorbed. The brains were placed at −80° C. for 7 min, and once taken out were sliced at the coronal cross planes vertically to the sight plane with 2 mm intervals between the slices. The brain slices were immersed in a water bath (37° C., 90 min) containing 20 g/L TTC dye freshly prepared with 0.2 mol/L pH 7.4˜7.8 PBS, and normal brain tissues were stained crimson while ischemic brain tissues were pale. After the tissues were washed with normal saline, the brain slices were rapidly aligned in a row from front to back in order, and the surface residual water was absorbed to dry surface, then photographed. Statistics of the pictures were carried on using image analysis software, and ischemic area (white area) and total area on the right side were delineated. The percentage of cerebral infarct area was calculated using the following formula.
Neurological deficit symptoms were evaluated 48 h after the cerebral ischemia, then the animals were sacrificed and the brains were taken out, TTC stained, and infarct areas of the stained brain slices were measured.
The rats were under MCAO for 120 min, and 1 h after reperfusion the rats were injected through tail vein with ZL006-06, ZL006-16, ZL006-28, ZL006-30, ZL006-43, ZL006-82 or an equivalent volume of solvent, wherein the doses of each drug were 1.5 mg/kg, and the volume of injected drugs was 0.1 ml/100 g weight. Neurological deficit symptoms were evaluated 48 h after the cerebral ischemia, then the animals were sacrificed and the brains were taken out, TTC stained, and infarct areas of the stained brain slices were measured.

[3] = tested on: neuropathic pain in mice (mechanical stimulus); experiment: Neuropathic pain model (SNL), mechanical pain threshold (von Frey); assay type: in vivo; conditions: intragastric 40 mg/kg; for efficacy duration of a single dose / time after administration at which significant efficacy was shown: SNL, mechanical; for threshold of paw withdrawal response to mechanical stimulus: day 7 after SNL, FIG. 6

Molecule: CC(=O)Oc1cc(NCc2cc(Cl)cc(Cl)c2O)ccc1C(=O)OC1CC2CCC1(C)C2(C)C (stereo not drawn) [ZL006-06, bornyl-2-acetyloxy-4-(2-hydroxy-3,5-dichlorobenzyl) aminobenzoate]
- Inhibition of LDH release (%) [1]: 55.8%
- neurological defect symptoms [2]: significantly alleviated
- cerebral infarct area [2]: significantly reduced
- efficacy duration of a single dose [3]: about 6 hours
- time after administration at which significant efficacy was shown [3]: 0.5 h
- threshold of paw withdrawal response to mechanical stimulus [3]: significantly increased

Molecule: CC(=O)Oc1cc(N(C)Cc2cc(Cl)cc(Cl)c2O)ccc1C(=O)OC1CC2CCC1(C)C2(C)C (stereo not drawn) [ZL006-30, bornyl-2-acetyloxy-4-[N-(2-hydroxy-3,5-dichlorobenzyl)-N-methyl]aminobenzoate]
- Inhibition of LDH release (%) [1]: 65.9%
- neurological defect symptoms [2]: significantly alleviated
- cerebral infarct area [2]: significantly reduced
- efficacy duration of a single dose [3]: about 6 hours
- time after administration at which significant efficacy was shown [3]: 0.5 h
- threshold of paw withdrawal response to mechanical stimulus [3]: significantly increased

Molecule: COC(=O)c1ccc(N(Cc2cc(Br)cc(Cl)c2O)C(C)=O)cc1OC(C)=O [ZL006-82, methyl 2-acetyloxy-4-[N-(2-hydroxy-3-chloro-5-bromobenzyl)-N-acetyl]aminobenzoate]
- Inhibition of LDH release (%) [1]: 61.2%
- neurological defect symptoms [2]: significantly alleviated
- cerebral infarct area [2]: significantly reduced
- efficacy duration of a single dose [3]: about 6 hours
- time after administration at which significant efficacy was shown [3]: 0.5 h
- threshold of paw withdrawal response to mechanical stimulus [3]: significantly increased

Molecule: CC1(C)C2CCC1(C)C(OC(=O)c1cc(Cl)c(NCc3cc(Cl)cc(Cl)c3O)cc1O)C2 (stereo not drawn) [ZL006-16, bornyl-2-hydroxy-4-(2-hydroxy-3,5-dichlorobenzyl)amino-5-chlorobenzoate]
- inhibition at 1 µM [1]: 60.3%
- neurological defect symptoms [2]: significantly alleviated
- cerebral infarct area [2]: significantly reduced
- efficacy duration of a single dose [3]: about 6 hours
- time after administration at which significant efficacy was shown [3]: 0.5 h
- threshold of paw withdrawal response to mechanical stimulus [3]: significantly increased

Molecule: CC(=O)N(Cc1cc(Cl)cc(Cl)c1O)c1ccc(C(=O)OC2CC3CCC2(C)C3(C)C)c(O)c1 (stereo not drawn) [ZL006-28, bornyl-2-hydroxy-4-[N-(2-hydroxy-3,5-dichlorobenzyl)-N-acetyl]aminobenzoate]
- Inhibition of LDH release (%) [1]: 61.6%
- neurological defect symptoms [2]: significantly alleviated
- cerebral infarct area [2]: significantly reduced
- efficacy duration of a single dose [3]: about 6 hours
- time after administration at which significant efficacy was shown [3]: 0.5 h
- threshold of paw withdrawal response to mechanical stimulus [3]: significantly increased

Molecule: CC(=O)Oc1cc(NCc2cc(Br)cc(Cl)c2O)ccc1C(=O)OC1CC2CCC1(C)C2(C)C (stereo not drawn) [ZL006-43, bornyl-2-acetyloxy-4-(2-hydroxy-3-chloro-5-bromobenzyl) aminobenzoate]
- Inhibition of LDH release (%) [1]: 68.9%
- neurological defect symptoms [2]: significantly alleviated
- cerebral infarct area [2]: significantly reduced
- efficacy duration of a single dose [3]: about 6 hours
- time after administration at which significant efficacy was shown [3]: 0.5 h
- threshold of paw withdrawal response to mechanical stimulus [3]: significantly increased

Molecule: CC(=O)Oc1cc(NCc2cc(F)ccc2O)ccc1C(=O)OC1CC2CCC1(C)C2(C)C (stereo not drawn) [ZL006-71, bornyl-2-acetyloxy-4-(2-hydroxy-5-fluorobenzyl) aminobenzoate]
- Inhibition of LDH release (%) [1]: 7.8%

Molecule: CN(Cc1cc(C(F)(F)F)cc(Cl)c1O)c1ccc(C(=O)OC2CC3CCC2(C)C3(C)C)c(O)c1 (stereo not drawn) [ZL006-53, bornyl-2-hydroxy-4-[N-(2-hydroxy-3-chloro-5-trifluoromethylbenzyl)-N-methyl]aminobenzoate]
- Inhibition of LDH release (%) [1]: 61.1%

Molecule: COc1cc(NCc2cc(C(F)(F)F)ccc2O)ccc1C(=O)OC1CC2CCC1(C)C2(C)C (stereo not drawn) [ZL006-73, bornyl-2-methoxy-4-(2-hydroxy-5-trifluoromethylbenzyl) aminobenzoate]
- Inhibition of LDH release (%) [1]: 25.3%

Molecule: CCOC(=O)c1ccc(N(C)Cc2cc(Cl)cc(Cl)c2O)cc1C(=O)OCC [ZL006-13, diethyl 4-[N-(3,5-dichloro-2-hydroxybenzyl)-N-methyl]aminophthalate]
- Inhibition of LDH release (%) [1]: 31.4%

Molecule: bornyl-2-(2-methoxy-2-carbonylethoxy)-4-[N-(2-hydroxy-3,5-dichlorobenzyl)-N-methyl]aminobenzoate [ZL006-34]
- Inhibition of LDH release (%) [1]: 24.1%

Molecule: CCCC(=O)Oc1cc(NCc2cc(Cl)cc(Cl)c2O)ccc1C(=O)OC1CC2CCC1(C)C2(C)C (stereo not drawn) [ZL006-23, bornyl-2-butyryloxy-4-(2-hydroxy-3,5-dichlorobenzyl) aminobenzoate]
- Inhibition of LDH release (%) [1]: 18.7%

Molecule: CC1(C)C2CCC1(C)C(OC(=O)c1ccc(NCc3cc(C(F)(F)F)ccc3O)cc1O)C2 (stereo not drawn) [ZL006-72, bornyl-2-hydroxy-4-(2-hydroxy-5-trifluoromethylbenzyl) aminobenzoate]
- Inhibition of LDH release (%) [1]: 21.6%

Molecule: CC(=O)Oc1cc(N(Cc2cc(Cl)cc(Cl)c2O)C(C)=O)ccc1C(=O)O [ZL006-10, 2-acetyloxy-4-[N-(2-hydroxy-3,5-dichlorobenzyl)-N-acetyl]aminobenzoic acid]
- Inhibition of LDH release (%) [1]: 42.3%

Molecule: COc1c(C(=O)OC2CC3CCC2(C)C3(C)C)ccc(NCc2cc(Cl)cc(Cl)c2O)c1Cl (stereo not drawn) [ZL006-26, bornyl-2-methoxy-3-chloro-4-(2-hydroxy-3,5-dichlorobenzyl)aminobenzoate]
- inhibition at 1 µM [1]: 35.4%

Molecule: CC(Nc1ccc(C(=O)O)c(O)c1)c1cc(Cl)ccc1O (stereo not drawn) [ZL006-14, 2-hydroxy-4-[1-(2-hydroxy-5-chlorophenyl)]-ethylaminobenzoic acid]
- Inhibition of LDH release (%) [1]: 19.9%

Molecule: CC1(C)C2CCC1(C)C(OC(=O)c1ccc(NCc3cc(Cl)cc(Cl)c3O)c(Cl)c1O)C2 (stereo not drawn) [ZL006-17, bornyl-2-hydroxy-3-chloro-4-(2-hydroxy-3,5-dichlorobenzyl)aminobenzoate]
- inhibition at 1 µM [1]: 48.2%

Molecule: COc1cc(N(C)Cc2cc(Cl)cc(Cl)c2O)ccc1C(=O)OC1CC2CCC1(C)C2(C)C (stereo not drawn) [ZL006-29, bornyl-2-methoxy-4-[N-(2-hydroxy-3,5-dichlorobenzyl)-N-methyl]aminobenzoate]
- Inhibition of LDH release (%) [1]: 41.7%

Molecule: methyl 2-acetyloxy-4-[N-(2-hydroxy-3,5-dichlorobenzyl)-N-(bornyl-2-carbonylethyl)]aminobenzoate [ZL006-38]
- Inhibition of LDH release (%) [1]: 41.3%

Molecule: CCCCCCOc1cc(NCc2cc(Cl)cc(Cl)c2O)ccc1C(=O)OC1CC2CCC1(C)C2(C)C (stereo not drawn) [ZL006-22, bornyl-2-n-hexyloxy-4-(2-hydroxy-3,5-dichlorobenzyl) aminobenzoate]
- Inhibition of LDH release (%) [1]: 2.5%

Molecule: CN(Cc1cc(F)cc(Cl)c1O)c1ccc(C(=O)OC2CC3CCC2(C)C3(C)C)c(O)c1 (stereo not drawn) [ZL006-61, bornyl-2-hydroxy-4-[N-(2-hydroxy-3-chloro-5-fluorobenzyl)-N-methyl]aminobenzoate]
- Inhibition of LDH release (%) [1]: 56.5%
